Reference: ChEMBL document CHEMBL1944592 (Bioorg Med Chem Lett, 2012)

molecular target: T1, Peroxisome proliferator-activated receptor gamma (Homo sapiens) (UniProt P37231); experiment: Agonist activity at human PPARgamma expressed in MG-63 cells at 2 times EC50 concentration by reporter gene-based transactivation assay relative to PPARgamma full agonist; format: functional, cell-based
T1 sequence (whole entry): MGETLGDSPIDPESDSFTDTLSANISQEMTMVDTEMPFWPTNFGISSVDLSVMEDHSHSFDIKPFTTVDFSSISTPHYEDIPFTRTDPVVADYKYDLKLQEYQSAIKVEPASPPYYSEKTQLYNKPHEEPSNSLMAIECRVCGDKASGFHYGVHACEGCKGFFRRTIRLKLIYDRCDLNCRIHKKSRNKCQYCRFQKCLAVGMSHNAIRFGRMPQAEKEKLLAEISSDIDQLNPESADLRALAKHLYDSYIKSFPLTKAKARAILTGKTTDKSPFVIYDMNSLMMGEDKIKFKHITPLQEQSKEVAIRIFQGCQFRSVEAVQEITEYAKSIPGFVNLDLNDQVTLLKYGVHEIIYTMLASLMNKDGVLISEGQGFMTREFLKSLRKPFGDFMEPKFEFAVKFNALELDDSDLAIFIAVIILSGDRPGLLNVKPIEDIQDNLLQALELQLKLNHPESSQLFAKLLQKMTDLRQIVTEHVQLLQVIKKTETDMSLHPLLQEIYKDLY

Row | Emax | Structure (SMILES)
1 | 99% | COC(=O)CCCc1cc(CNC(=O)c2c(OC)cc(O)c3c2OC2=CC(O)=C(C(C)=O)C(=O)[C@]23C)c2ccccc2c1
2 | 109% | COc1cc(O)c2c(c1C(=O)NCc1cc(CCC(=O)O)cc3ccccc13)OC1=CC(O)=C(C(C)=O)C(=O)[C@]12C

Row | Structure (SMILES) | Emax
3 | COc1cc(O)c2c(c1C(=O)NCc1cc(CCCC(=O)O)cc3ccccc13)OC1=CC(O)=C(C(C)=O)C(=O)[C@]12C | 105%

molecular target: T1, Peroxisome proliferator-activated receptor gamma (Homo sapiens); experiment: Partial agonist activity at human PPARgamma expressed in MG-63 cells at 2 times EC50 concentration by reporter gene-based transactivation assay relative to PPARgamma full agonist; format: functional, cell-based

Row | Structure (SMILES) | Emax
4 | COC(=O)CCc1cc(CNC(=O)c2c(OC)cc(O)c3c2OC2=CC(O)=C(C(C)=O)C(=O)[C@]23C)c2ccccc2c1 | 79%
5 | CCOc1cc(CNC(=O)c2c(OC)cc(O)c3c2OC2=CC(O)=C(C(C)=O)C(=O)[C@]23C)c2ccccc2c1 | 22%

Now from value to molecule:

Row | Emax | Structure (SMILES)
6 | 29% | COc1cc(O)c2c(c1C(=O)NCc1cc(O)cc3ccccc13)OC1=CC(O)=C(C(C)=O)C(=O)[C@]12C
7 | 50% | COc1cc(O)c2c(c1C(=O)NCc1cc(OC(C)=O)cc3ccccc13)OC1=CC(O)=C(C(C)=O)C(=O)[C@]12C
8 | 51% | COc1cc(O)c2c(c1C(=O)NCc1cc(C)cc3ccccc13)OC1=CC(O)=C(C(C)=O)C(=O)[C@]12C
9 | 55% | COC(=O)c1cc(CNC(=O)c2c(OC)cc(O)c3c2OC2=CC(O)=C(C(C)=O)C(=O)[C@]23C)c2ccccc2c1
10 | 32% | COc1cc(CNC(=O)c2c(OC)cc(O)c3c2OC2=CC(O)=C(C(C)=O)C(=O)[C@]23C)c2ccccc2c1
11 | 44% | COCc1cc(CNC(=O)c2c(OC)cc(O)c3c2OC2=CC(O)=C(C(C)=O)C(=O)[C@]23C)c2ccccc2c1

molecular target: T2, Peroxisome proliferator-activated receptor gamma (Homo sapiens, UniProt P37231); experiment: Partial agonist activity at human PPARgamma expressed in MG-63 cells by reporter gene-based transactivation assay; format: functional, cell-based
T2 sequence (P37231 whole entry): T1 sequence (whole entry)

Row | Structure (SMILES) | EC50
12 | COC(=O)CCc1cc(CNC(=O)c2c(OC)cc(O)c3c2OC2=CC(O)=C(C(C)=O)C(=O)[C@]23C)c2ccccc2c1 | 130 nM
13 | CCOc1cc(CNC(=O)c2c(OC)cc(O)c3c2OC2=CC(O)=C(C(C)=O)C(=O)[C@]23C)c2ccccc2c1 | 240 nM

Continued, values first:

Row | EC50 | Structure (SMILES)
14 | > 1000 nM | COc1cc(O)c2c(c1C(=O)NCc1cc(C(=O)O)cc3ccccc13)OC1=CC(O)=C(C(C)=O)C(=O)[C@]12C
15 | 130 nM | COc1cc(O)c2c(c1C(=O)NCc1cc(O)cc3ccccc13)OC1=CC(O)=C(C(C)=O)C(=O)[C@]12C
16 | 680 nM | COc1cc(O)c2c(c1C(=O)NCc1cc(OC(C)=O)cc3ccccc13)OC1=CC(O)=C(C(C)=O)C(=O)[C@]12C
17 | 210 nM | COc1cc(O)c2c(c1C(=O)NCc1cc(C)cc3ccccc13)OC1=CC(O)=C(C(C)=O)C(=O)[C@]12C
18 | 880 nM | COC(=O)c1cc(CNC(=O)c2c(OC)cc(O)c3c2OC2=CC(O)=C(C(C)=O)C(=O)[C@]23C)c2ccccc2c1
19 | 94 nM | COc1cc(CNC(=O)c2c(OC)cc(O)c3c2OC2=CC(O)=C(C(C)=O)C(=O)[C@]23C)c2ccccc2c1
20 | 200 nM | COCc1cc(CNC(=O)c2c(OC)cc(O)c3c2OC2=CC(O)=C(C(C)=O)C(=O)[C@]23C)c2ccccc2c1

molecular target: T2, Peroxisome proliferator-activated receptor gamma; experiment: Agonist activity at human PPARgamma expressed in MG-63 cells by reporter gene-based transactivation assay; format: functional, cell-based

Row | EC50 | Structure (SMILES)
21 | 42 nM | COC(=O)CCCc1cc(CNC(=O)c2c(OC)cc(O)c3c2OC2=CC(O)=C(C(C)=O)C(=O)[C@]23C)c2ccccc2c1
22 | 320 nM | COc1cc(O)c2c(c1C(=O)NCc1cc(CCC(=O)O)cc3ccccc13)OC1=CC(O)=C(C(C)=O)C(=O)[C@]12C

Row | Structure (SMILES) | EC50
23 | COc1cc(O)c2c(c1C(=O)NCc1cc(CCCC(=O)O)cc3ccccc13)OC1=CC(O)=C(C(C)=O)C(=O)[C@]12C | 67 nM
